Results published in patent publication US20180263996A1, “ARYL SULTAM DERIVATIVES AS RORc MODULATORS” (Genentech, Inc., priority 2015, published 2018).

biological target: T1, RORc (Homo sapiens, UniProt P51449); test: In Vitro RORc Ligand Binding Assay; conditions: IC50 values for RORc
T1 construct: host or cells: E. coli
T1 sequence (P51449 269-508 limits assumed): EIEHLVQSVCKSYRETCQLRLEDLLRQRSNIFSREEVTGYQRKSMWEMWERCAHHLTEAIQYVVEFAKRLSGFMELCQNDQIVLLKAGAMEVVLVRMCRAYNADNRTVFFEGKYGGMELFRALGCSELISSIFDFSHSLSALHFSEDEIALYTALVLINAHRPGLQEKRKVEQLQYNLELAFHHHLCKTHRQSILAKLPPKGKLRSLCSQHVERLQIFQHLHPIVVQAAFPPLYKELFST
Description: This assay was used to determine a compound's potency in inhibiting activity of RORc by determining, Kiapp, IC50, or percent inhibition values.
On day of the assay, 100 uL of 0.05% CHAPS (in deionized H2O) was added to all wells of the GFB Unifilter plate and allowed soak for 1 h. A wash buffer of 50 mM HEPES (pH 7.4), 150 mM NaCl, and 5 mM MgCl2 was prepared to wash the filter plate. To prepare an assay buffer, BSA was added to the wash buffer to reach 0.01% and DTT was added to reach 1 mM.
The 20× compound stocks were diluted in DMSO with Assay Buffer 4-fold to reach 5× the final test concentration in 25% DMSO (10 uL compound+30 uL Assay Buffer). Solutions were mixed by aspiration several times with a pipette set on 50 uL volume.
For two point screening, 10 mM stock compound solutions were diluted in DMSO to obtain 200 uM (20× the high test concentration) and then diluted 10-fold further to reach 20 uM (20× the low test concentration). The 20× stocks were diluted 4-fold with Assay Buffer (10 uL compound+30 uL Assay Buffer) to reach 5× the test concentrations (50 uM and 5 uM) and 10 uL were added to two assay plates for the duplicate wells. With each concentration tested on 2 plates, each set of 80 compounds used 4 assay plates (1 uM and 10 uM, with n=2).
For 25-hydroxycholesterol in 25% DMSO/75% Assay Buffer; 10 uL per well was used for NSB samples. Wells for Total Binding and No Receptor sample determination contained 10 uL of 25% DMSO/75% Assay Buffer per well.
Add 20 uL to all wells to reach 6 nM final concentration in the assay.
Stock receptor solution was diluted in assay buffer to obtain 1.5 ug/mL in Assay Buffer. 20 uL was added to all wells. For No Receptor samples, 20 uL Assay Buffer was substituted for receptor solution.
Assay plates were 96-well polypropylene V-bottom plates. […] 10 uL of 25% DMSO/75% Assay Buffer was added to Total Binding or No Receptor wells. 10 uL of 5 uM 25-hydroxycholesterol in 25% DMSO/75% Assay Buffer was added to NSB wells. […] 20 uL of 1.5 ug/mL RORc receptor was added to wells (or 40 uL Assay Buffer to No R wells). Following addition to the wells, the plates were incubated 3 h at 25° C.
Using a Packard Filtermate Harvester, the filter plate were washed 4 times following transfer of the incubated samples. Plates were dry-filtered completely (2 h at 50° C. or overnight at room temperature). 50 uL Microscint 0 was added to all wells and read on Topcount protocol Inverted.
Final concentrations were as follows: 50 mM HEPES buffer (pH 7.4); 150 mM NaCl; 1 mM DTT; 5 mM MgCl2; 0.01% BSA; 5% DMSO; 0.6 ug/mL RORc receptor; 6 nM 25-[^3H]hydroxycholesterol. For NSB wells, 1 uM 25-hydroxycholesterol was also present.

| Compound | IC50 [nM] |
| --- | --- |
| CC(NC(=O)c1cnco1)c1cc(F)c(CN2[C@@H](C)CC[C@H](c3ccccc3)S2(=O)=O)cc1F (stereo in doubt) [Compound 75, N-[1-[2,5-difluoro-4-[[(3S,6R)-3-methyl-1,1-dioxo-6-phenyl-thiazinan-2-yl]methyl]phenyl]ethyl]oxazole-5-carboxamide] | 76.1 |
| C[C@H]1CC[C@H](c2ccccc2)S(=O)(=O)N1Cc1cc(F)c([C@@H](CC2COC2)C(N)=O)cc1F [Compound 5, (2R)-2-[2,5-difluoro-4-[[(3S,6R)-3-methyl-1,1-dioxo-6-phenyl-thiazinan-2-yl]methyl]phenyl]-3-(oxetan-3-yl)propanamide] | 31 |
| CC(NC(=O)c1cncnc1)c1cc(F)c(CN2[C@@H](C)CC[C@H](c3ccccc3)S2(=O)=O)cc1F (stereo in doubt) [Compound 63, N-[1-[2,5-difluoro-4-[[(3S,6R)-3-methyl-1,1-dioxo-6-phenyl-thiazinan-2-yl]methyl]phenyl]ethyl]pyrimidine-5-carboxamide] | 8.3 |
| CC(NC(=O)c1ccn(C)n1)c1cc(F)c(CN2[C@@H](C)CC[C@H](c3ccccc3)S2(=O)=O)cc1F (stereo in doubt) [Compound 58, N-[1-[2,5-difluoro-4-[[(3S,6R)-3-methyl-1,1-dioxo-6-phenyl-thiazinan-2-yl]methyl]phenyl]ethyl]-1-methyl-pyrazole-3-carboxamide] | 254 |
| C[C@H]1CC[C@H](c2ccccc2)S(=O)(=O)N1Cc1cc(F)c([C@H](OCC2CC2)C(N)=O)cc1F [Compound 19, (2S)-2-(cyclopropylmethoxy)-2-[2,5-difluoro-4-[[(3S,6R)-3-methyl-1,1-dioxo-6-phenyl-thiazinan-2-yl]methyl]phenyl]acetamide] | 50.7 |
| C[C@H]1CC[C@H](c2ccccc2)S(=O)(=O)N1Cc1cc(F)c(C2(NCC(N)=O)CC(F)(F)C2)cc1F [Compound 21, 2-[[1-[2,5-difluoro-4-[[(3S,6R)-3-methyl-1,1-dioxo-6-phenyl-thiazinan-2-yl]methyl]phenyl]-3,3-difluoro-cyclobutyl]amino]acetamide] | 1.5 |
| C[C@H]1CC[C@H](c2ccccc2)S(=O)(=O)N1Cc1cc(F)c([C@@H](OCC2CC2)C(N)=O)cc1F [Compound 18, (2R)-2-(cyclopropylmethoxy)-2-[2,5-difluoro-4-[[(3S,6R)-3-methyl-1,1-dioxo-6-phenyl-thiazinan-2-yl]methyl]phenyl]acetamide] | 30.1 |
| C=CCOC1(c2cc(F)c(CN3[C@@H](C)CC[C@H](c4ccccc4)S3(=O)=O)cc2F)CC2(COC2)C1 [Compound 14, (3S,6R)-2-[[4-(6-allyloxy-2-oxaspiro[3.3]heptan-6-yl)-2,5-difluoro-phenyl]methyl]-3-methyl-6-phenyl-thiazinane 1,1-dioxide] | 2.2 |
| C[C@H]1CC[C@H](c2ccccc2)S(=O)(=O)N1Cc1cc(F)c(C2(OCC(N)=O)CC3(COC3)C2)cc1F [Compound 12, 2-[[6-[2,5-difluoro-4-[[(3S,6R)-3-methyl-1,1-dioxo-6-phenyl-thiazinan-2-yl]methyl]phenyl]-2-oxaspiro[3.3]heptan-6-yl]oxy]acetamide] | 2.3 |
| C[C@H]1CC[C@H](c2ccccc2)S(=O)(=O)N1Cc1cc(F)c([C@H](OC2COC2)C(N)=O)cc1F [Compound 9, (2S)-2-[2,5-difluoro-4-[[(3S,6R)-3-methyl-1,1-dioxo-6-phenyl-thiazinan-2-yl]methyl]phenyl]-2-(oxetan-3-yloxy)acetamide] | 34.8 |
| C[C@H]1CC[C@H](c2ccccc2)S(=O)(=O)N1Cc1ccc(C2(C(=O)NCC3CC3)CCOCC2)cc1F [Compound 31, N-(cyclopropylmethyl)-4-[3-fluoro-4-[[(3S,6R)-3-methyl-1,1-dioxo-6-phenyl-thiazinan-2-yl]methyl]phenyl]tetrahydropyran-4-carboxamide] | 83.5 |
| CC(NC(=O)c1csc(N)n1)c1cc(F)c(CN2[C@@H](C)CC[C@H](c3ccccc3)S2(=O)=O)cc1F (stereo in doubt) [Compound 78, 2-amino-N-[1-[2,5-difluoro-4-[[(3S,6R)-3-methyl-1,1-dioxo-6-phenyl-thiazinan-2-yl]methyl]phenyl]ethyl]thiazole-4-carboxamide] | 215 |
| C[C@H]1CC[C@H](c2ccccc2)S(=O)(=O)N1Cc1cc(F)c(C(C)(C)NCC(N)=O)cc1F [Compound 20, 2-[[1-[2,5-difluoro-4-[[(3S,6R)-3-methyl-1,1-dioxo-6-phenyl-thiazinan-2-yl]methyl]phenyl]-1-methyl-ethyl]amino]acetamide] | 4.2 |

The remaining molecules from weak to strong by IC50, led by results:

| IC50 [nM] | Compound |
| --- | --- |
| 695 | CN/C(=C\C#N)NC(C)c1cc(F)c(CN2[C@@H](C)CC[C@H](c3ccccc3)S2(=O)=O)cc1F (stereo partly drawn) [Compound 45, 3-[1-[2,5-difluoro-4-[[(3S,6R)-3-methyl-1,1-dioxo-6-phenyl-thiazinan-2-yl]methyl]phenyl]ethylamino]-3-(methylamino)prop-2-enenitrile; formic acid] |
| 234 | C[C@H]1CC[C@H](c2ccccc2)S(=O)(=O)N1Cc1ccc(C2(C(=O)NC3(C#N)CC3)CCOCC2)cc1F (stereo in doubt) [Compound 36, N-(1-cyanocyclopropyl)-4-[3-fluoro-4-[[(3S,6R)-3-methyl-1,1-dioxo-6-phenyl-thiazinan-2-yl]methyl]phenyl]tetrahydropyran-4-carboxamide] |
| 129 | C[C@H]1CC[C@H](c2ccccc2)S(=O)(=O)N1Cc1ccc(C2(C(=O)NC3CC3)CCOCC2)cc1F [Compound 30, N-cyclopropyl-4-[3-fluoro-4-[[(3S,6R)-3-methyl-1,1-dioxo-6-phenyl-thiazinan-2-yl]methyl]phenyl]tetrahydropyran-4-carboxamide] |
| 56.4 | CC(NCC(N)=O)c1cc(F)c(CN2[C@@H](C)CC[C@H](c3ccccc3)S2(=O)=O)cc1F (stereo partly drawn) [Compound 29, 2-[1-[2,5-difluoro-4-[[(3S,6R)-3-methyl-1,1-dioxo-6-phenyl-thiazinan-2-yl]methyl]phenyl]ethylamino] acetamide] |
| 54.5 | Cc1nocc1C(=O)NC(C)c1cc(F)c(CN2[C@@H](C)CC[C@H](c3ccccc3)S2(=O)=O)cc1F (stereo in doubt) [Compound 60, N-[1-[2,5-difluoro-4-[[(3S,6R)-3-methyl-1,1-dioxo-6-phenyl-thiazinan-2-yl]methyl]phenyl]ethyl]-3-methyl-isoxazole-4-carboxamide] |
| 44.5 | C[C@H]1CC[C@H](c2ccccc2)S(=O)(=O)N1Cc1ccc(C2(COCC3COC3)CCOCC2)cc1F [Compound 3, (3S,6R)-2-[[2-fluoro-4-[4-(oxetan-3-ylmethoxymethyl)tetrahydropyran-4-yl]phenyl]methyl]-3-methyl-6-phenyl-thiazinane 1,1-dioxide] |
| 22 | CC(NCc1cnoc1)c1cc(F)c(CN2[C@@H](C)CC[C@H](c3ccccc3)S2(=O)=O)cc1F (stereo partly drawn) [Compound 50, 1-[2,5-difluoro-4-[[(3S,6R)-3-methyl-1,1-dioxo-6-phenyl-thiazinan-2-yl]methyl]phenyl]-N-(isoxazol-4-ylmethyl)ethanamine] |
| 20 | CNC(=C[N+](=O)[O-])NC(C)c1cc(F)c(CN2C(C)CCC(c3ccccc3)S2(=O)=O)cc1F [Compound 28, N1′-[1-[2,5-difluoro-4-[[(3S,6R)-3-methyl-1,1-dioxo-6-phenyl-thiazinan-2-yl]methyl]phenyl]ethyl]-N1-methyl-2-nitro-ethene-1,1-diamine] |
| 6.8 | C[C@H]1CC[C@H](c2ccccc2)S(=O)(=O)N1Cc1cc(F)c(C2(OCC(=O)NC3CC3)CCOCC2)cc1F [Compound 41, N-cyclopropyl-2-[4-[2,5-difluoro-4-[[(3S,6R)-3-methyl-1,1-dioxo-6-phenyl-thiazinan-2-yl]methyl]phenyl]tetrahydropyran-4-yl]oxy-acetamide] |
